Tests used:
mPTP [1] = assay: mPTP activity (Ca2+ retention) assay in isolated rat liver mitochondria; assay type: biochemical; conditions: for mPTP Rat liver pIC50: examples tested by different contract research organisations, believed comparable
Procedure, shortened: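 pIC50 was taken from Fluo5N fluorescence at 10 min after a 75 μM CaCl2 bolus, scaled between DMSO (0%) and 5 μM cyclosporin A (100%). Compounds, ten half-log concentrations from 30 μM to 1 nM final, sat 10 min at RT with fresh female Sprague Dawley rat liver mitochondria energized by succinate plus rotenone.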

mPTP [2] = assay: Human platelet mitochondria assay (annexin V / PS exposure by flow cytometry); assay type: cell-based; conditions: human blood platelets stimulated with thrombin/convulxin/calcium; % AnV-APC positive platelets
Experimental: The mPTP cell based assay was performed using a transformative functional cell-(human blood platelets)-based assay by flow cytometry. Procoagulant platelets expose phosphatidylserine (PS), allowing a burst of thrombin generation that is responsible for producing an occlusive thrombus. While an increase in cytosolic Ca^2+ concentration is required for deriving platelets to become activated, a higher and more sustained increases in cytosolic Ca^2+ concentration is needed to commit some platelets to becoming procoagulant. Simulation of platelets results in the rapid influx of Ca^2+ across the platelet membrane. The Ca^2+ is then sequestered by mitochondria until the threshold for mPTP opening is reached, at which point the pore opens and the mitochondrial membrane potential is dissipated. mPTP opening and subsequent disruption in mitochondrial membrane potential leads to release of a high concentration of calcium stored in mitochondria into the platelet's cytosol (“supramaximal calcium signal” [1]) which is known to be a requisite initiating signal transduction leading to externalisation of procoagulant PS to the outer leaflet of platelets' plasma membrane. PS externalisation of stimulated platelets can be quantified in live platelets using standard annexin V (AnV) labelling by flow cytometry, enabling pharmacological characterisation of mPTP inhibitors.
Fresh human blood (9 ml) was collected from consenting donors into 3.2% sodium citrate. Acid citrate dextrose (85 mM tri-sodium citrate, 71 mM citric acid, and 111 mM D-glucose) was added (1:7 vol/vol) and platelet-rich plasma was separated by centrifugation (200 g, 10 minutes, ambient temperature, and without any brake). Platelets were pelleted by centrifugation (600 g, 10 minutes, ambient temperature) in the presence of prostaglandin E1 (100 nM) and apyrase (0.02 U/mL). Pelleted platelets were resuspended in N-2-hydroxyethylpiperazine-N′-2-ethanesulfonic acid (HEPES)-buffered saline supplemented with D-glucose (135 mM NaCl, 10 mM HEPES, 3 mM KCl, 1 mM MgCl2, 0.34 mM NaH2PO4, 5 mM D-glucose, 0.1% bovine serum albumin, pH 7.4.) and apyrase (0.02 U/mL). Platelets were rested for 30 minutes at 30° C. before treatment protocols were initiated.
Test compounds were prepared from 10 mM stocks in DMSO. Serial dilution of search test compounds stamped in duplicate into a 96 well plate using Multidrop Pico 8 Digital Dispenser. Platelets were loaded and incubated for 30 min at room temperature. Then a stimulation mix containing Thrombin (FAC: 0.5 U/ml)/Convulxin (FAC: 0.05 μg/ml)/Calcium (FAC: 2 mM) added per well except control/not stimulated wells (This is low signal control). Some wells received no treatment but DMSO vehicle control and used as high signal controls (FAC of DMSO set at 0.1% in all wells of the 96 well plate). The reaction mix incubated for 10 min at room temperature. During last 2 min of stimulation AnV-APC was added to detect surface PS exposure. Samples ten fixed and fluorescence was detected by MACSQuant X flow cytometry and 10 000 platelet events were collected. The percentage of AnV-APC positive platelets was calculated for each well. IC50 for each compound was then calculated using a standard four parameter curve fit model (GraphPad Prism).

mPTP [3] = assay: mPTP activity assay in isolated rat brain mitochondria; assay type: biochemical; conditions: fluorescence at 10 min timepoint
Procedure, shortened: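 Fresh brain mitochondria from female Sprague Dawley rats, digitonin-washed, in pH 7.4 mannitol/MOPS/KCl buffer with pyruvate, malate, ADP, oligomycin A and 2 μM Fluo5N. Preincubated with compounds 10 min at RT. Fluo5N fluorescence then read every 3 sec for 10 min on FLIPR Tetra.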

| Structure (SMILES) | mPTP Rat liver pIC50 (mPTP [1]) | pIC50 (mPTP [2]) | mPTP Rat brain pIC50 (mPTP [3]) | mPTP pIC50 rat liver mitochondria (mPTP [1]; Fluo5N fluorescence at 10 min after 75 μM CaCl2) |
| --- | --- | --- | --- | --- |
| CC(CNC(=O)c1nccc(=O)[nH]1)(Cc1ccc(F)cc1F)C1CC1 (single isomer, unassigned) [Example 244, N-(2-cyclopropyl-3-(2,4-difluorophenyl)-2-methylpropyl)-6-oxo-1,6-dihydropyrimidine-2-carboxamide] | 6.73 | 7.14 | 7.53 | – |
| O=C(NCC1(Cc2ccc(F)cc2F)CC(F)C1)c1nccc(=O)[nH]1 (single isomer, unassigned) [Example 247] | 6.27 | 6.52 | 7.26 | – |
| CC(CNC(=O)c1nccc(=O)[nH]1)(Cc1ccc(F)cc1)C1CC1 (single isomer, unassigned) [Example 252] | 6.82 | 7.42 | 7.91 | – |
| Cn1nc(C(=O)NCC2(Cc3ccc(F)cc3F)CCC2)[nH]c1=O [Example 22, N-((1-(2,4-difluorobenzyl)cyclobutyl)methyl)-1-methyl-5-oxo-4,5-dihydro-1H-1,2,4-triazole-3-carboxamide] | 6.79 | 7.14 | 7.75 | – |
| Cn1nc(C(=O)NC[C@H](Cc2ccc(F)cc2F)C2CC2)[nH]c1=O [Example 96, (R)—N-(2-Cyclopropyl-3-(2,4-difluorophenyl)propyl)-1-methyl-5-oxo-4,5-dihydro-1H-1,2,4-triazole-3-carboxamide] | 6.76 | 7.43 | 7.91 | – |
| Cn1nc(C(=O)NC[C@H](Cc2c(F)cc(F)cc2F)C2CC2)[nH]c1=O [Example 117, (R)—N-(2-cyclopropyl-3-(2,4,6-trifluorophenyl)propyl)-1-methyl-5-oxo-4,5-dihydro-1H-1,2,4-triazole-3-carboxamide] | 6.47 | 6.90 | 7.56 | – |
| Cn1nc(C(=O)NC[C@H](Cc2ccc(F)cc2)C2CC2)[nH]c1=O [Example 190] | 7.31 | 7.23 | 7.75 | highest activity |

From patent US12491185B2, “Inhibitors of mPTP” (NRG Therapeutics Ltd, priority 2023, dated 2025)
